Data taken from BindingDB's records for doi:10.1021/acs.jmedchem.7b01708 (Duquesne University, 2018).

What was measured:
[1] = Binding affinity to human FR-alpha receptor expressed in Chinese hamster RT16 cells assessed as antiproliferative activity measured as reduction in cell viability after 96 hrs in presence of folic acid by Cell-Titer Blue assay
[2] = Binding affinity to human PCFT expressed in Chinese hamster R2/PCFT4 cells assessed as antiproliferative activity measured as reduction in cell viability after 96 hrs by Cell-Titer Blue assay
[3] = Binding affinity to human FR-alpha receptor expressed in Chinese hamster RT16 cells assessed as antiproliferative activity measured as reduction in cell viability after 96 hrs by Cell-Titer Blue assay
[4] = Binding affinity to human FR-beta receptor expressed in Chinese hamster D4 cells assessed as antiproliferative activity measured as reduction in cell viability after 96 hrs in presence of folic acid by Cell-Titer Blue assay
[5] = Binding affinity to human RFC expressed in Chinese hamster PC43-10 cells assessed as antiproliferative activity measured as reduction in cell viability after 96 hrs by Cell-Titer Blue assay
[6] = Binding affinity to human FR-beta receptor expressed in Chinese hamster D4 cells assessed as antiproliferative activity measured as reduction in cell viability after 96 hrs by Cell-Titer Blue assay

Compound	IC50 [1] [µM]	IC50 [2] [µM]	IC50 [3] [µM]	IC50 [4] [µM]	IC50 [5] [µM]	IC50 [6] [µM]
Nc1nc2[nH]c(CCC#Cc3ccc(C(=O)N[C@@H](CCC(=O)O)C(=O)O)cn3)cc2c(=O)[nH]1	> 1	> 1	0.449	> 1	> 1	0.839
Nc1nc2[nH]c(CCCCc3ccc(C(=O)N[C@@H](CCC(=O)O)C(=O)O)cn3)cc2c(=O)[nH]1	> 1	> 1	0.015	> 1	> 1	0.037
Nc1nc2[nH]c(CCC#Cc3ccc(C(=O)N[C@@H](CCC(=O)O)C(=O)O)nc3)cc2c(=O)[nH]1	> 1	> 1	0.0044	> 1	> 1	0.019
Nc1nc2[nH]c(CCCCc3cccc(C(=O)N[C@@H](CCC(=O)O)C(=O)O)n3)cc2c(=O)[nH]1	> 1	–	0.186	> 1	> 1	> 1
Nc1nc2[nH]c(CCCCc3ccc(C(=O)N[C@@H](CCC(=O)O)C(=O)O)nc3)cc2c(=O)[nH]1	–	0.058	–	–	> 1	–
Nc1nc2[nH]c(CCC#Cc3cccc(C(=O)N[C@@H](CCC(=O)O)C(=O)O)n3)cc2c(=O)[nH]1	> 1	> 1	> 1	> 1	> 1	> 1
C#CCC(Cc1cnc2nc(N)nc(N)c2n1)c1ccc(C(=O)N[C@@H](CCC(=O)O)C(=O)O)cc1 (stereo partly specified) [CHEBI:71223]	> 1	0.057	0.168	–	0.00069	–
Nc1nc2[nH]c(CCCCc3ccc(C(=O)N[C@@H](CCC(=O)O)C(=O)O)cc3)cc2c(=O)[nH]1 [N-{4-[4-(2-Amino-4-oxo-4,7-dihydro-3H-pyrrolo[2,3-d]pyrimidin-6-yl)butyl]benzoyl}-L-glutamic Acid]	–	–	–	–	> 1	–
